Reference: paper PMC10317887, “Hypoglycaemia frequency and physiological response after double or triple doses of once-weekly insulin icodec vs once-daily insulin glargine U100 in type 2 diabetes: a randomised crossover trial” (Diabetologia, 2023)
Where two headings read alike, the source gives them in different places.

Assays:
[1] = test system: individuals with type 2 diabetes; assay type: in vivo, human; settings: for Mean PGnadir, treatment ratio (95% CI) icodec vs glargine U100 / Mean PGnadir, estimated geometric mean: all participants; for Time to recovery from PGnadir to PG5.5 mmol/l, estimated geometric mean: constant i.v. glucose 5.5 mg kg^−1 min^−1; for Time to recovery from PGnadir to PG5.5 mmol/l, estimated geometric mean / Glucose needed from PGnadir to PG5.5 mmol/l, estimated geometric mean: individuals with PG <3.3 mmol/l at initiation of recovery; for Time to decline from PG5.5 mmol/l to PG3.9 mmol/l, estimated geometric mean: individuals with PG decline to <3.0 mmol/l and/or hypoglycaemia symptoms; for Time to decline from PG5.5 mmol/l to PG3.0 mmol/l, estimated geometric mean: individuals with PG decline to <3.0 mmol/l; for Mean PGnadir in the subgroup analysis: subgroup PGnadir <3.0 mmol/l and/or symptoms
Procedure: During the two treatment periods, participants received once-weekly icodec for 6 weeks or once-daily glargine U100 for 11 days in randomised order. […] Treatment periods were separated by 35–49 days of washout following icodec and 4–11 days of washout following glargine U100. Icodec (4200 nmol/ml; Novo Nordisk, Bagsværd, Denmark) was administered s.c. in the left thigh at 20:00 hours by qualified site staff using a NovoPen 4 pen injector (Novo Nordisk). […] At the start of week 1, a one-time additional 100% icodec dose was administered to accelerate time to steady state, followed by a normal dose at week 2, a double dose at week 3 (prior to hypoglycaemia induction), no dose at week 4 (due to the double dose given the week before), a normal dose at week 5, and a triple dose at week 6 (prior to hypoglycaemia induction). Insulin glargine U100 (100 U/ml [600 nmol/ml]; Sanofi, Paris, France) was administered s.c. in the right thigh at 09:00 hours by qualified site staff using a SoloStar pen injector (Sanofi). A normal dose of once-daily glargine U100 was established during run in. Glargine U100 was administered at a normal dose for 3 days followed by a double dose on day 4 (prior to hypoglycaemia induction), no dose on day 5 (due to the double dose given the day before), then a normal dose for 5 days, and a triple dose on day 11 (prior to hypoglycaemia induction).
Hypoglycaemia induction was carried out during weeks 3 (double dose) and 6 (triple dose) for icodec and on days 4 (double dose) and 11 (triple dose) for glargine U100 while at steady state. To initiate hypoglycaemia induction, participants should not have experienced hypoglycaemia (PG <3.9 mmol/l) within 24 h or have any relevant medical condition that could confound the outcomes or pose unacceptable risk to the participant. Hypoglycaemia induction (Fig. 1b) was initiated at 16:00 hours 2 days after double/triple icodec dosing (44 h post dose) and on the day of double/triple glargine U100 dosing (7 h post dose). These timings were selected since they approximated the expected time of maximum glucose-lowering effect for both insulin products based on pharmacokinetic/pharmacodynamic modelling performed prior to the trial. For 7.5 h prior to hypoglycaemia induction, PG was kept at 5.5 mmol/l by variable i.v. infusion of glucose (20% wt/vol) or human soluble insulin (100 U/ml in 99.6 ml saline [154 mmol/l NaCl]). PG was measured by a Super GL2 Glucose Analyzer (Dr. Müller Gerätebau, Freital, Germany). Insulin infusion was terminated 60 min prior to hypoglycaemia induction at the latest. PG was maintained at 5.5 mmol/l±20% from 60 min to 30 min prior to hypoglycaemia induction and at 5.5 mmol/l±10% during the last 30 min prior to hypoglycaemia induction. Hypoglycaemia induction was initiated by terminating glucose infusion, thereby allowing PG to decline towards the minimum (nadir) PG target level of no less than 2.5 mmol/l. The handling of alternative scenarios, e.g. PGnadir >2.5 mmol/l, slow PG decline towards hypoglycaemia or slow recovery from hypoglycaemia, is described in electronic supplementary material (ESM) Methods. The investigator recorded if the PGnadir was <3.0 mmol/l or ≥3.0 mmol/l with hypoglycaemic symptoms. The PGnadir level was maintained for 15 min by variable i.v. glucose as needed. Subsequently, euglycaemia was restored by constant i.v. glucose (5.5 mg kg^−1 min^−1) until PG was 5.5 mmol/l, which was maintained until the next morning (between 07:00 hours and 09:00 hours) by variable i.v. glucose. During hypoglycaemia induction, participants remained fasted (except for water ad libitum) and stayed in a supine or semi-supine position (except when cognitive tests were performed). Participants stayed at the clinical site for at least 12 h following each hypoglycaemia induction experiment. […]

insulin receptor = settings: ref [9], [10]; cited from earlier work
Description: (§1) In addition, the low insulin receptor binding affinity of icodec contributes to its long half-life by reducing the clearance rate, as insulin is mainly cleared by internalisation following binding to and activation of the insulin receptor [9, 10]. In case of excess amounts of icodec throughout the body, e.g ...

albumin = settings: ref [9], [10]; cited from earlier work
Description: as §1

cortisol = experiment: Counterregulatory hormone response: serum cortisol (electrochemiluminescent immunoassay); assay type: in vivo, human; settings: for Cortisol at PG3.0 mmol/l, estimated geometric mean / Cortisol at PGnadir, estimated geometric mean: serum, subgroup; for Cortisol at PGnadir, estimated geometric mean: n=19 icodec
Procedure: (§2) Plasma concentrations of glucagon were measured by an enzyme-linked immunosorbent assay (Mercodia AB, Uppsala, Sweden). Plasma concentrations of adrenaline (epinephrine) and noradrenaline (norepinephrine) were measured by liquid chromatography-mass spectrometry (Thermo Fisher Scientific, Dreieich, Germany). Serum concentrations of cortisol and growth hormone were measured by electrochemiluminescent immunoassays (Roche Diagnostics, Mannheim, Germany).

growth hormone = experiment: Counterregulatory hormone response: serum growth hormone (electrochemiluminescent immunoassay); assay type: in vivo, human; settings: for Growth hormone at PG3.0 mmol/l, estimated geometric mean / Growth hormone at PGnadir, estimated geometric mean: serum, subgroup; for Growth hormone at PGnadir, estimated geometric mean: n=19 icodec
Procedure: as §2

[2] = test system: individuals with type 2 diabetes; experiment: Cognitive function: digit symbol substitution test (DSST); settings: for Change in DSST at PG3.0 mmol/l, least-squares mean / Change in DSST at PGnadir, least-squares mean: change from baseline, subgroup
Procedure: Hypoglycaemic response assessments were conducted at predefined PG levels during hypoglycaemia development and recovery (Fig. 1b). Hypoglycaemic symptoms score (HSS), hypoglycaemia awareness, counterregulatory hormones, vital signs and cognitive function tests were assessed at baseline (PG5.5 mmol/l), during hypoglycaemia development (PG3.9 mmol/l and PG3.0 mmol/l) and at PGnadir.
Cognitive function was assessed using the trail making B (TMB) test, the digit symbol substitution test (DSST) and the four-choice reaction time (4CRT) test. In the TMB test from the Halstead Reitan Neuropsychological Battery [16, 17], the participant connects 25 circles distributed on a chart in the correct sequence as quickly as possible. The circles contain a number (1–13) or a letter (A–L), and the correct sequence consists of alternating numbers and letters (i.e. 1–A–2–B–3 etc). The test result is the time needed to complete the task correctly. In the DSST, which is a subtest of the Wechsler Adult Intelligence Scale - Revised [18], nine digits are represented by nine different symbols. During 90 s, the participant is requested to write down the appropriate symbol for as many numbers as possible in a given array. The test result is the number of correct responses. […] In 100 cycles, the participant responds by pressing the corresponding position on a keypad. The test result has two components: percentage of correct answers and the mean response time.
Changes in HSS, vital signs and cognitive function tests from baseline (PG5.5 mmol/l) to PG3.0 mmol/l and to PGnadir were compared between insulin products at each of the two dose levels using the same approach as described for PGnadir, except that no logarithmic transformation was done and that the baseline value was included as a covariate. Least-squares means, treatment difference and 95% CI were derived.

[3] = test system: noradrenaline (norepinephrine); experiment: Counterregulatory hormone response: plasma noradrenaline (LC-MS); assay type: in vivo, human; settings: for Noradrenaline at PG3.0 mmol/l, estimated geometric mean / Noradrenaline at PGnadir, estimated geometric mean: plasma, subgroup
Procedure: as §2

[4] = double dose, n=15 icodec, 13 glargine U100
[5] = double dose, n=20 icodec, 19 glargine U100
[6] = double dose, n=17 icodec, 15 glargine U100
[7] = triple dose, n=18 icodec, 22 glargine U100
[8] = triple dose, n=20 icodec, 29 glargine U100
[9] = triple dose, n=20 icodec, 28 glargine U100

insulin icodec
Time to full recovery from hypoglycaemia ([1]; constant i.v. glucose infusion at 5.5 mg kg^−1 min^−1, double and triple doses): ≤ 30 min | Glucose needed from PGnadir to PG5.5 mmol/l, treatment ratio (95% CI) icodec vs glargine U100 ([1]; double dose): 1.27 (1.05, 1.53) | Time to decline from PG5.5 mmol/l to PG3.0 mmol/l, treatment ratio (95% CI) icodec vs glargine U100 ([1]; double dose): 0.64 (0.31, 1.33) | Time to decline from PG5.5 mmol/l to PG3.9 mmol/l, treatment ratio (95% CI) icodec vs glargine U100 ([1]; double dose): 0.62 (0.48, 0.78) | Time to recovery from PGnadir to PG5.5 mmol/l, treatment ratio (95% CI) icodec vs glargine U100 ([1]; double dose): 1.34 (1.16, 1.55) | Mean PGnadir, treatment ratio (95% CI) icodec vs glargine U100 ([1]; double dose): 0.97 (0.94, 1.00) | Mean PGnadir, estimated geometric mean ([1]; double dose, n=43 icodec, 42 glargine U100): 3.2 mmol/L | Time to recovery from PGnadir to PG5.5 mmol/l, estimated geometric mean [1, 4]: 28.3 min | Glucose needed from PGnadir to PG5.5 mmol/l, estimated geometric mean [1, 4]: 141 mg/kg | Time to decline from PG5.5 mmol/l to PG3.9 mmol/l, estimated geometric mean [1, 5]: 0.7 h | Time to decline from PG5.5 mmol/l to PG3.0 mmol/l, estimated geometric mean [1, 6]: 2.9 h | Mean PGnadir in the subgroup analysis, treatment ratio [95% CI] icodec vs glargine U100 ([1]; double dose): 1.01 | Mean PGnadir in the subgroup analysis ([1]; double dose): 2.9 mmol/L | Glucose needed from PGnadir to PG5.5 mmol/l, treatment ratio (95% CI) icodec vs glargine U100 ([1]; triple dose): 1.02 (0.83, 1.24) | Time to decline from PG5.5 mmol/l to PG3.0 mmol/l, treatment ratio (95% CI) icodec vs glargine U100 ([1]; triple dose): 1.05 (0.68, 1.64) | Time to decline from PG5.5 mmol/l to PG3.9 mmol/l, treatment ratio (95% CI) icodec vs glargine U100 ([1]; triple dose): 0.90 (0.78, 1.04) | Time to recovery from PGnadir to PG5.5 mmol/l, treatment ratio (95% CI) icodec vs glargine U100 ([1]; triple dose): 1.02 (0.82, 1.28) | Mean PGnadir, treatment ratio (95% CI) icodec vs glargine U100 ([1]; triple dose): 1.07 (1.04, 1.11) | Mean PGnadir, estimated geometric mean ([1]; triple dose, n=38 icodec, 40 glargine U100): 3.1 mmol/L | Time to recovery from PGnadir to PG5.5 mmol/l, estimated geometric mean [1, 7]: 23.8 min | Glucose needed from PGnadir to PG5.5 mmol/l, estimated geometric mean [1, 7]: 116 mg/kg | Time to decline from PG5.5 mmol/l to PG3.9 mmol/l, estimated geometric mean [1, 8]: 0.7 h | Time to decline from PG5.5 mmol/l to PG3.0 mmol/l, estimated geometric mean [1, 9]: 2.4 h | Mean PGnadir in the subgroup analysis, treatment ratio [95% CI] icodec vs glargine U100 ([1]; triple dose): 1.05 | Mean PGnadir in the subgroup analysis ([1]; triple dose): 2.9 mmol/L | Insulin receptor binding affinity (insulin receptor): low | Binding to albumin (albumin): strong, reversible binding | Cortisol at PG3.0 mmol/l, treatment ratio (95% CI) icodec vs glargine U100 (cortisol; double dose): 1.60 (0.91, 2.80) | Cortisol at PGnadir, treatment ratio (95% CI) icodec vs glargine U100 (cortisol; double dose): 0.99 (0.67, 1.45) | Cortisol at PG3.0 mmol/l, estimated geometric mean (cortisol; [6]): 245.9 nmol/L | Cortisol at PGnadir, estimated geometric mean (cortisol; double dose, 19 glargine U100): 296.0 nmol/L | Cortisol at PG3.0 mmol/l, treatment ratio (95% CI) icodec vs glargine U100 (cortisol; triple dose): 1.64 | Cortisol at PGnadir, treatment ratio (95% CI) icodec vs glargine U100 (cortisol; triple dose): 1.80 | Cortisol at PGnadir, estimated geometric mean (cortisol; triple dose, 29 glargine U100): 355.0 nmol/L | Cortisol at PG3.0 mmol/l, estimated geometric mean (cortisol; [9]): 201.4 nmol/L | Growth hormone at PG3.0 mmol/l, treatment ratio (95% CI) icodec vs glargine U100 (growth hormone; double dose): 0.89 (0.46, 1.75) | Growth hormone at PGnadir, treatment ratio (95% CI) icodec vs glargine U100 (growth hormone; double dose): 1.35 (0.94, 1.94) | Growth hormone at PG3.0 mmol/l, estimated geometric mean (growth hormone; [6]): 3.6 µg/L | Growth hormone at PGnadir, estimated geometric mean (growth hormone; double dose, 19 glargine U100): 4.7 µg/L | Growth hormone at PG3.0 mmol/l, treatment ratio (95% CI) icodec vs glargine U100 (growth hormone; triple dose): 1.54 | Growth hormone at PGnadir, treatment ratio (95% CI) icodec vs glargine U100 (growth hormone; triple dose): 1.10 (0.50, 2.43) | Growth hormone at PGnadir, estimated geometric mean (growth hormone; triple dose, 29 glargine U100): 3.8 µg/L | Growth hormone at PG3.0 mmol/l, estimated geometric mean (growth hormone; [9]): 3.7 µg/L | Change in DSST at PG3.0 mmol/l, treatment difference (95% CI) icodec vs glargine U100 ([2]; double dose): 1.2 (-3.1, 5.5) | Change in DSST at PGnadir, treatment difference (95% CI) icodec vs glargine U100 ([2]; double dose): 0.6 (-3.7, 4.9) | Change in DSST at PG3.0 mmol/l, least-squares mean ([2]; double dose, n=16 icodec, 15 glargine U100): -5.4 number of correct responses | Change in DSST at PGnadir, least-squares mean ([2]; double dose, n=18 icodec, 18 glargine U100): -6.7 number of correct responses | Change in DSST at PG3.0 mmol/l, treatment difference (95% CI) icodec vs glargine U100 ([2]; triple dose): 0.5 (-3.3, 4.3) | Change in DSST at PGnadir, treatment difference (95% CI) icodec vs glargine U100 ([2]; triple dose): -2.2 (-6.8, 2.5) | Change in DSST at PGnadir, least-squares mean ([2]; triple dose, n=19 icodec, 29 glargine U100): -9.1 number of correct responses | Change in DSST at PG3.0 mmol/l, least-squares mean [2, 9]: -5.5 number of correct responses | Noradrenaline at PG3.0 mmol/l, treatment ratio (95% CI) icodec vs glargine U100 ([3]; double dose): 1.12 (0.83, 1.50) | Noradrenaline at PGnadir, treatment ratio (95% CI) icodec vs glargine U100 ([3]; double dose): 1.19 (0.91, 1.55) | Noradrenaline at PG3.0 mmol/l, estimated geometric mean [3, 6]: 952.7 pmol/L | Noradrenaline at PGnadir, estimated geometric mean [3, 5]: 1078.0 pmol/L | Noradrenaline at PG3.0 mmol/l, treatment ratio (95% CI) icodec vs glargine U100 ([3]; triple dose): 1.26 | Noradrenaline at PGnadir, treatment ratio (95% CI) icodec vs glargine U100 ([3]; triple dose): 1.05 (0.79, 1.40) | Noradrenaline at PG3.0 mmol/l, estimated geometric mean [3, 9]: 1058.4 pmol/L | Noradrenaline at PGnadir, estimated geometric mean [3, 8]: 934.1 pmol/L
